In patent US20250333424A1, “ANTIVIRAL COMPOUNDS” (Gilead Sciences, Inc., priority 2024, published 2025):

test system: monocytic THP1 cells infected with HIV VSV-G pseudotyped GFP-NEF reporter virus; assay: cells; type: cell-based; details: Human immunodeficiency virus 1, THP-1, 24 h

Row | SMILES | EC50
1 | Cc1cc(/C=C/C#N)cc(C)c1Oc1nc(NC23CC(C#N)(C2)C3)nc2c1c(C)n[s+]2[O-] (centres unmarked) [Compound 297, (E)-3-((4-(4-(2-cyanovinyl)-2,6-dimethylphenoxy)-3-methyl-1-oxidoisothiazolo[5,4-d]pyrimidin-6-yl)amino)bicyclo[1.1.1]pentane-1-carbonitrile] | 159 nM
2 | Cc1cc(/C=C/C#N)cc(C)c1Oc1nc(NC23CC(C#N)(C2)C3)nc2nc(-c3cncnc3)[nH]c12 [Compound 72, (E)-3-((6-(4-(2-cyanovinyl)-2,6-dimethylphenoxy)-8-(pyrimidin-5-yl)-7H-purin-2-yl)amino)bicyclo[1.1.1]pentane-1-carbonitrile] | 308 nM
3 | Cc1cc(/C=C/C#N)cc(C)c1Oc1nc(NC23CC(C#N)(C2)C3)nc2c1C1(C)OC[C@@H](C)CN1C2=O (single isomer, unassigned) [Example 243] | 219 nM
4 | Cc1cc(/C=C/C#N)cc(C)c1Oc1nc(NC23CC(C#N)(C2)C3)nc2c1C(C)(O)N(C)C2=O (centres unmarked) [Compound 141, (E)-3-((4-(4-(2-cyanovinyl)-2,6-dimethylphenoxy)-5-hydroxy-5,6-dimethyl-7-oxo-6,7-dihydro-5H-pyrrolo[3,4-d]pyrimidin-2-yl)amino)bicyclo[1.1.1]pentane-1-carbonitrile] | 73 nM
5 | C/C(C#N)=C\c1cc(C)c(Oc2nc(NC34CC(C#N)(C3)C4)nc3nn(C)cc23)c(C)c1 [Example 258, (E)-3-((4-(4-(2-cyanoprop-1-en-1-yl)-2,6-dimethylphenoxy)-2-methyl-2H-pyrazolo[3,4-d]pyrimidin-6-yl)amino)bicyclo[1.1.1]pentane-1-carbonitrile] | 178 nM
6 | COCCN1C(=O)c2nc(NC34CC(C#N)(C3)C4)nc(Oc3c(C)cc(/C=C/C#N)cc3C)c2C1C (centres unmarked) [Example 203, (E)-3-((4-(4-(2-cyanovinyl)-2,6-dimethylphenoxy)-6-(2-methoxyethyl)-5-methyl-7-oxo-6,7-dihydro-5H-pyrrolo[3,4-d]pyrimidin-2-yl)amino)bicyclo[1.1.1]pentane-1-carbonitrile] | 27.5 nM
7 | Cc1cc(/C=C/C#N)cc(C)c1Oc1nc(NC23CC(C#N)(C2)C3)nc2nn(C(F)F)nc12 (single isomer, unassigned) [Compound 22, (E)-3-((7-(4-(2-cyanovinyl)-2,6-dimethylphenoxy)-2-(difluoromethyl)-2H-[1,2,3]triazolo[4,5-d]pyrimidin-5-yl)amino)bicyclo[1.1.1]pentane-1-carbonitrile] | 259 nM
8 | Cc1cc(/C=C/C#N)cc(C)c1Oc1nc(NC23CC(C#N)(C2)C3)nc2nc(C)n(C(F)F)c12 [Compound 13, (E)-3-((6-(4-(2-cyanovinyl)-2,6-dimethylphenoxy)-7-(difluoromethyl)-8-methyl-7H-purin-2-yl)amino)bicyclo[1.1.1]pentane-1-carbonitrile] | 11.7 nM
9 | Cc1cc(/C=C/C#N)cc(C)c1Oc1nc(NC23CC(C#N)(C2)C3)nc2nn(C)nc12 [Compound 82, (E)-3-((7-(4-(2-cyanovinyl)-2,6-dimethylphenoxy)-2-methyl-2H-[1,2,3]triazolo[4,5-d]pyrimidin-5-yl)amino)bicyclo[1.1.1]pentane-1-carbonitrile] | 79 nM
10 | Cc1cc(/C=C/C#N)cc(C)c1Oc1nc(NC23CC(C#N)(C2)C3)nc2c1C1(C)OCC[C@@H](C)N1C2=O (stereo partly drawn) [Compound 272, 3-(((8R)-4-(4-((E)-2-cyanovinyl)-2,6-dimethylphenoxy)-4b,8-dimethyl-10-oxo-4b,7,8,10-tetrahydro-6H-pyrimido[5′,4′:3,4]pyrrolo[2,1-b][1,3]oxazin-2-yl)amino)bicyclo[1.1.1]pentane-1-carbonitrile] | 68.3 nM
11 | Cc1cc([C@@H]2C[C@H]2C#N)cc(C)c1Oc1nc(NC23CC(C#N)(C2)C3)nc2nn(C)cc12 (racemic) [Compound 134, (rac)-3-((4-(4-((1R,2R)-2-cyanocyclopropyl)-2,6-dimethylphenoxy)-2-methyl-2H-pyrazolo[3,4-d]pyrimidin-6-yl)amino)bicyclo[1.1.1]pentane-1-carbonitrile] | 262 nM
12 | Cc1cc(/C=C/C#N)cc(C)c1Oc1nc(NC23CC(C#N)(C2)C3)nc2noc(C)c12 [Compound 111, (E)-3-((4-(4-(2-cyanovinyl)-2,6-dimethylphenoxy)-3-methylisoxazolo[3,4-d]pyrimidin-6-yl)amino)bicyclo[1.1.1]pentane-1-carbonitrile] | 30.6 nM
13 | Cc1cc(/C=C/C#N)cc(C)c1Oc1nc(NC23CC(C#N)(C2)C3)nc2c1C(C)N(c1cnn(C3CCC3)c1)C2=O (centres unmarked) [Example 227, (E)-3-((4-(4-(2-cyanovinyl)-2,6-dimethylphenoxy)-6-(1-cyclobutyl-1H-pyrazol-4-yl)-5-methyl-7-oxo-6,7-dihydro-5H-pyrrolo[3,4-d]pyrimidin-2-yl)amino)bicyclo[1.1.1]pentane-1-carbonitrile] | 115 nM
14 | Cc1cc(/C=C/C#N)cc(C)c1Oc1nc(NC23CC(C#N)(C2)C3)nc2nc(C3CCOCC3)n(C(F)F)c12 [Compound 176, (E)-3-((6-(4-(2-cyanovinyl)-2,6-dimethylphenoxy)-7-(difluoromethyl)-8-(tetrahydro-2H-pyran-4-yl)-7H-purin-2-yl)amino)bicyclo[1.1.1]pentane-1-carbonitrile] | 45 nM
15 | Cc1cc(/C=C/C#N)cc(C)c1Oc1nc(NC23CC(C#N)(C2)C3)nc2c1C(C)N(CCc1cn(C)cn1)C2=O (centres unmarked) [Example 209, (E)-3-((4-(4-(2-cyanovinyl)-2,6-dimethylphenoxy)-5-methyl-6-(2-(1-methyl-1H-imidazol-4-yl)ethyl)-7-oxo-6,7-dihydro-5H-pyrrolo[3,4-d]pyrimidin-2-yl)amino)bicyclo[1.1.1]pentane-1-carbonitrile] | 57.7 nM
16 | Cc1cc(/C=C/C#N)cc(C)c1Oc1nc(NC23CC(C#N)(C2)C3)nc2c1C1(C)OCC[C@H](C)N1C2=O (stereo partly drawn) [Compound 271, 3-(((8S)-4-(4-((E)-2-cyanovinyl)-2,6-dimethylphenoxy)-4b,8-dimethyl-10-oxo-4b,7,8,10-tetrahydro-6H-pyrimido[5′,4′:3,4]pyrrolo[2,1-b][1,3]oxazin-2-yl)amino)bicyclo[11.1.1]pentane-1-carbonitrile] | 52 nM
17 | Cc1cc(/C=C/C#N)cc(C)c1Oc1nc(NC23CC(C#N)(C2)C3)nc2c1[C@@H](C(F)(F)F)NC2=O [Example 254, (S,E)-3-((4-(4-(2-cyanovinyl)-2,6-dimethylphenoxy)-7-oxo-5-(trifluoromethyl)-6,7-dihydro-5H-pyrrolo[3,4-d]pyrimidin-2-yl)amino)bicyclo[1.1.1]pentane-1-carbonitrile] | 71.4 nM
18 | Cc1cc(/C=C/C#N)cc(C)c1Oc1nc(NC23CC(C#N)(C2)C3)nc2nn(C)c(Cl)c12 (single isomer, unassigned) [Compound 95, (E)-3-((3-chloro-4-(4-(2-cyanovinyl)-2,6-dimethylphenoxy)-1-methyl-11H-pyrazolo[3,4-d]pyrimidin-6-yl)amino)bicyclo[1.1.1]pentane-1-carbonitrile] | 30.6 nM
19 | Cc1cc(/C=C/C#N)cc(C)c1Oc1nc(NC23CC(C#N)(C2)C3)nc2nc3n(c12)C[C@H](F)CO3 (single isomer, unassigned) [Compound 192] | 27.1 nM
20 | COc1n[nH]c2c(Oc3c(C)cc(/C=C/C#N)cc3C)nc(NC34CC(C#N)(C3)C4)nc12 [Compound 293, (E)-3-((7-(4-(2-cyanovinyl)-2,6-dimethylphenoxy)-3-methoxy-1H-pyrazolo[4,3-d]pyrimidin-5-yl)amino)bicyclo[1.1.1]pentane-1-carbonitrile] | 56.3 nM
21 | Cc1cc(/C=C/C#N)cc(C)c1Oc1nc(NC23CC(C#N)(C2)C3)nc2c1C(C)N(c1cnn3c1CCC3)C2=O (centres unmarked) [Example 225, (E)-3-((4-(4-(2-cyanovinyl)-2,6-dimethylphenoxy)-6-(5,6-dihydro-4H-pyrrolo[1,2-b]pyrazol-3-yl)-5-methyl-7-oxo-6,7-dihydro-5H-pyrrolo[3,4-d]pyrimidin-2-yl)amino)bicyclo[1.1.1]pentane-1-carbonitrile] | 51.8 nM
22 | Cc1cc(/C=C/C#N)cc(C)c1Oc1nc(NC23CC(C#N)(C2)C3)nc2c(=O)n3n(c12)CCC3 [Compound 295, (E)-3-((4-(4-(2-cyanovinyl)-2,6-dimethylphenoxy)-10-oxo-7,8-dihydro-6H,10H-pyrazolo[1′,2′:1,2]pyrazolo[4,3-d]pyrimidin-2-yl)amino)bicyclo[1.1.1]pentane-1-carbonitrile] | 55.3 nM
23 | Cc1cc(/C=C/C#N)cc(C)c1Oc1nc(NC23CC(C#N)(C2)C3)nc2c1C(C)N(c1cnn(C3CC3)c1)C2=O (centres unmarked) [Example 224, (E)-3-((4-(4-(2-cyanovinyl)-2,6-dimethylphenoxy)-6-(1-cyclopropyl-1H-pyrazol-4-yl)-5-methyl-7-oxo-6,7-dihydro-5H-pyrrolo[3,4-d]pyrimidin-2-yl)amino)bicyclo[1.1.1]pentane-1-carbonitrile] | 51.1 nM
24 | COC(F)(F)C1NC(=O)c2nc(NC34CC(C#N)(C3)C4)nc(Oc3c(C)cc(/C=C/C#N)cc3C)c21 (centres unmarked) [Example 255, (E)-3-((4-2-((2-cyanovinyl)-2,6-dimethylphenoxy)-5-(difluoro(methoxy)methyl)-7-oxo-6,7-dihydro-5H-pyrrolo[3,4-d]pyrimidin-2-yl)amino)bicyclo[1.1.1]pentane-1-carbonitrile] | 52.5 nM
25 | Cc1cc(/C=C/C#N)cc(C)c1Oc1nc(NC23CC(C#N)(C2)C3)nc2c1[C@H]1OCCCN1C2=O [Compound 280, (R,E)-3-((4-(4-(2-cyanovinyl)-2,6-dimethylphenoxy)-10-oxo-4b,7,8,10-tetrahydro-6H-pyrimido[5′,4′:3,4]pyrrolo[2,1-b][1,3]oxazin-2-yl)amino)bicyclo[1.1.1]pentane-1-carbonitrile] | 33.7 nM
26 | C=CCN1C(=O)c2nc(NC34CC(C#N)(C3)C4)nc(Oc3c(C)cc(/C=C/C#N)cc3C)c2C1C (centres unmarked) [Example 205, (E)-3-((6-allyl-4-(4-(2-cyanovinyl)-2,6-dimethylphenoxy)-5-methyl-7-oxo-6,7-dihydro-5H-pyrrolo[3,4-d]pyrimidin-2-yl)amino)bicyclo[1.1.1]pentane-1-carbonitrile] | 42.7 nM
